This is an account of results in BindingDB's records for doi:10.1021/cb700166z (Albert Einstein College of Medicine, 2007).

Common to all, as to test: Enzyme Activity Assay
What all share (conditions): pH 7.5; 25 °C

For assay [1], the target named is T1, 5'-methylthioadenosine/S-adenosylhomocysteine nucleosidase (Staphylococcus aureus (strain COL), UniProt Q5HFG2).
T1 sequence (Q5HFG2 whole entry): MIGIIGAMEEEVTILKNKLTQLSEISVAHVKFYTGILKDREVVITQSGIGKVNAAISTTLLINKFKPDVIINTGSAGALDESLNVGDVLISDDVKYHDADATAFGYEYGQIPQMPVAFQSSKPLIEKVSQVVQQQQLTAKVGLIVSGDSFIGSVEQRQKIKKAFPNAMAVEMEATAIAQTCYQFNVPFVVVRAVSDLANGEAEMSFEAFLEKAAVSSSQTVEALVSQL
The text has this: (§1) Enzyme activity assay using various bacterial species of 5'-Methylthioadenosine nucleosidases (MTANs) excepted for MTAP, for human MTAP.

Assay [2] deals with 5'-methylthioadenosine/S-adenosylhomocysteine nucleosidase (Klebsiella pneumoniae (strain 342), UniProt B5Y1L0).
5'-methylthioadenosine/S-adenosylhomocysteine nucleosidase (Klebsiella pneumoniae (strain 342), UniProt B5Y1L0), sequence (B5Y1L0 whole entry): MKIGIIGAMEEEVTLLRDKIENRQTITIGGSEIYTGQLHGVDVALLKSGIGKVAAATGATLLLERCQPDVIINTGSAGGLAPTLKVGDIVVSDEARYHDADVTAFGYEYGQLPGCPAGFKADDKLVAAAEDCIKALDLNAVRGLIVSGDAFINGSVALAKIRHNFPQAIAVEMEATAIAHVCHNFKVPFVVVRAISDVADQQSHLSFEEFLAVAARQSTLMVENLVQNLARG
From the text: as §1

Assay [3] deals with 5'-methylthioadenosine/S-adenosylhomocysteine nucleosidase (Escherichia coli (strain K12), UniProt P0AF12).
5'-methylthioadenosine/S-adenosylhomocysteine nucleosidase (Escherichia coli (strain K12), UniProt P0AF12), sequence (P0AF12 whole entry): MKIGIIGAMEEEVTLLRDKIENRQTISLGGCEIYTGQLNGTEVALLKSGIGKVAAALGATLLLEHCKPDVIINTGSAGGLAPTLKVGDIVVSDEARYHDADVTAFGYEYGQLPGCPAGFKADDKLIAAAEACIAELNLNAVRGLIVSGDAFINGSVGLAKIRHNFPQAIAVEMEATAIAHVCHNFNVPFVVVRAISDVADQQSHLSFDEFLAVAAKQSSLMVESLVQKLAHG
From the text: as §1

Assay [4] has as its target T2, Adenosylhomocysteine nucleosidase (Streptococcus pneumoniae (strain ATCC BAA-255 / R6), UniProt Q8DQ16).
T2 sequence (Q8DQ16 whole entry): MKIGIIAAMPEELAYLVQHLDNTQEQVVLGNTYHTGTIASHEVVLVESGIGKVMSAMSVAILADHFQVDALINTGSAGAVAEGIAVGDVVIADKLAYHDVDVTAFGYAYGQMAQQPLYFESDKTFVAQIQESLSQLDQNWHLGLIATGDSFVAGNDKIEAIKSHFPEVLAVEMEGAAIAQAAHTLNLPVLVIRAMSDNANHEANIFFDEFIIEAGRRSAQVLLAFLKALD
From the text: as §1

Assay [5] addresses T3, Aminodeoxyfutalosine nucleosidase (Helicobacter pylori (strain ATCC 700392 / 26695), UniProt O24915).
T3 sequence (O24915 whole entry): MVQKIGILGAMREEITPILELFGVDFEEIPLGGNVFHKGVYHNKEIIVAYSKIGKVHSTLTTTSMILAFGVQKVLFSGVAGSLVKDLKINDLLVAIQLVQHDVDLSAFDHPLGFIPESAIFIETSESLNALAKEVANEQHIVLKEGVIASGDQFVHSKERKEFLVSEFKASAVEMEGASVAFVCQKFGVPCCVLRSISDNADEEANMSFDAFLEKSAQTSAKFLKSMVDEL
From the text: as §1

Assay [6] deals with T4, S-methyl-5'-thioadenosine phosphorylase (Homo sapiens, UniProt Q13126).
T4 sequence (Q13126 whole entry): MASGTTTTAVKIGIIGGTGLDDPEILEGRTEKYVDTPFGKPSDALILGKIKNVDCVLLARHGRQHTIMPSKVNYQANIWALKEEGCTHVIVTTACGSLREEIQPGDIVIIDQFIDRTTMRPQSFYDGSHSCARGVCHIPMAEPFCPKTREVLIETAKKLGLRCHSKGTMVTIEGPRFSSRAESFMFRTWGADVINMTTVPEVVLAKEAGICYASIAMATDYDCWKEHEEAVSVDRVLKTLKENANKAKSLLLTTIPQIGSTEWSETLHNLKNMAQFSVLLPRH
From the text: as §1

Assay [7] addresses T5, 5'-methylthioadenosine/S-adenosylhomocysteine nucleosidase (Neisseria meningitidis (strain alpha14), UniProt C6S634).
T5 sequence (C6S634 whole entry): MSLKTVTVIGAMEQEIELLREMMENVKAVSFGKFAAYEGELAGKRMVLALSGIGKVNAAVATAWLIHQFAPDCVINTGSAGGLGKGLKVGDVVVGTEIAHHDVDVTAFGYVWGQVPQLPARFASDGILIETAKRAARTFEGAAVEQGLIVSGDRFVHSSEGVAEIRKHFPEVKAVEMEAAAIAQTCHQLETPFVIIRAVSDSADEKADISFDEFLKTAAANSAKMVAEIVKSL
From the text: as §1

Molecules are shown by their SMILES. Where “and” joins values, the source holds several entries; their conditions need not be identical. Equal values may be shown once.

For orientation: Kd means the equilibrium constant for the complex coming apart. In the case of `Nc1ncnc2c(C3NC(CSc4ccc(Cl)cc4)C(O)C3O)c[nH]c12` (stereo unspecified), the Kd in assay [1] turned out to be 53 nM; in assay [2] it was 4.1 nM; in assay [3], 0.002 nM; in assay [4] it was 190 nM; in assay [5] it was 40 nM; in assay [6], 0.166 nM. Further, the dissociation constant (Kd) in assay [7] amounted to 0.063 nM.
As for `Nc1ncnc2c(CN3CC(O)C(CSc4ccc(Cl)cc4)C3)c[nH]c12` (stereo unspecified) [DADMe-ImmA-p-ClPh], the Kd was 8 nM in assay [1]; 0.5 nM in assay [2]; 0.36 nM in assay [4]; 0.57 nM in assay [5]; 0.01 nM in assay [6]; 0.021 nM in assay [7].
For `CCSCC1NC(c2c[nH]c3c(N)ncnc23)C(O)C1O` (stereo unspecified), the Kd in assay [1] worked out at 12 nM; in assay [2], 13 nM; in assay [3], 0.012 nM; in assay [4], 40 nM; in assay [5], 3.4 nM; in assay [6], 0.266 nM. For the same molecule, the Kd in assay [7] came to 0.12 nM.
Regarding `CSCC1NC(c2c[nH]c3c(N)ncnc23)C(O)C1O` (stereo unspecified) [2-(4-Amino-5H-pyrrolo[3,2-d]pyrimidin-7-yl)-3,4-dihydroxy-5-methylsulfanylmethyl-pyrrolidinium], the Kd in assay [1] is 77 nM; in assay [2], 45 nM; in assay [3] it was 0.077 nM; in assay [4], 1000 nM; in assay [5], 1.2 nM; in assay [6], 1 nM. Also, the dissociation constant (Kd) in assay [7] turned out to be 0.36 nM.
As for `Nc1ncnc2c(C3NC(CSCc4ccccc4)C(O)C3O)c[nH]c12` (stereo unspecified), the Kd in assay [1] turned out to be 12 nM; in assay [2] it was 13 nM; in assay [3], 0.027 nM; in assay [4], 210 nM; in assay [5] it was 200 nM; in assay [6] it was 26 nM. This molecule gave an equilibrium dissociation constant (Kd) in assay [7] of 0.17 nM.
Take `Nc1ncnc2c(CN3CC(O)C(CSCc4ccccc4)C3)c[nH]c12` (stereo unspecified): the Kd is 0.841 nM in assay [1]; 1.9 nM in assay [2]; 2.4 nM in assay [4]; 200 nM in assay [5]; 0.7 nM in assay [6]; 0.024 nM in assay [7].
Take `CCSC[C@H]1CN(Cc2c[nH]c3c(N)ncnc23)C[C@@H]1O` [DADMe-ImmA-Et]: the Kd in assay [1] worked out at 1.3 nM; in assay [2], 2.2 nM; in assay [4], 10 nM; in assay [5], 0.515 nM; in assay [7] it was 0.046 nM.
With `CSC[C@H]1CN(Cc2c[nH]c3c(N)ncnc23)C[C@@H]1O` [DADMe-ImmA-Me], the Kd in assay [1] was 1.4 nM; in assay [2], 0.784 nM; in assay [4] it was 24 nM; in assay [5], 0.571 nM; in assay [6], 0.086 nM and 0.034 nM; in assay [7], 0.14 nM.
